Laboratory results as given in PMC6602942, “Vertebrates originally possess four functional subtypes of G protein-coupled melatonin receptor” (Scientific Reports, 2019).
Several values for one entry are separate records, joined by “and”; a condition that tells them apart may be missing. Equal entries are not always repeated. Where two headings read alike, the source gives them in different places. One block for each compound: values may come before it.

Columns and labels:
[1] = target: T1, medaka MTNR1c (Oryzias latipes, UniProt A0A0D6A8H7); assay: cAMP-responsive (CRE-luc) reporter gene assay, agonist mode; assay type: cell-based; settings: for RAA (%) MTNR1c (relative agonistic activity) / Emax: maximal activity as percentage of that of melatonin, Hepa-E1 cells, forskolin, ND: not detected; for Emax: read-out: RAA (%) MTNR1c (relative agonistic activity)
T1 sequence (A0A0D6A8H7 entry or part of it): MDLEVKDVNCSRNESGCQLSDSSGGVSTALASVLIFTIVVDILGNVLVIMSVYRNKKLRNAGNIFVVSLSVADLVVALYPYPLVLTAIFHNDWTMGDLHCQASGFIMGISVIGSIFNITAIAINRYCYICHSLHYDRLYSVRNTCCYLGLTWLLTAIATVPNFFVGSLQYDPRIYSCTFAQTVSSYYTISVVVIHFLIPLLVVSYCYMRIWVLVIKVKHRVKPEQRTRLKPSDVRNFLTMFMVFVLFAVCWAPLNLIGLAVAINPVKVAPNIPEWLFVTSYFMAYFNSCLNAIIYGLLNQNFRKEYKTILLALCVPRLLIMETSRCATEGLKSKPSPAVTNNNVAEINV
Text: (§1) Expression vectors for medaka mtnr genes, (pcDNA-OlMTNR1a, pcDNA-OlMTNR1b, pcDNA-OlMTNR1c and pcDNA-OlMTNR1a-like) were constructed by PCR amplification of the entire protein coding region, using primers which introduced in-frame Kozak sequence[33] at the 5′ end. A cyclic adenosine monophosphate (cAMP)-regulated reporter vector containing the luciferase gene under the control of a cAMP response element upstream of the TATA-like promoter region from the herpes simplex virus thymidine kinase promoter, named pCRE-luc, originated from the Pathway Profiling Luciferase System (Clontech). Hepa-E1 cells, i.e. epithelial-like Nile tilapia hepatocytes, were obtained from the Institute of Physical and Chemical Research (RIKEN) cell bank (Tsukuba, Japan). For MTNR1a, MTNR1b and MTNR1d, stable transfections were performed as described below. Hepa-E1 cells were seeded in 9 cm dishes prior to transfection. Both plasmids, pCRE-luc as well as expression vectors for medaka mtnrs were linearized by […] and transfected with X-tremeGENE 9 (Roche) according to the manufacturer’s instructions. Stably transfected cells were selected with G418. After selection, each colony was collected by pipetting. Sensitivity for cAMP in each clone was tested by forskolin treatment after seeding into 96-well plates with E-RDF medium (Kyokuto, Tokyo, Japan) and supplemented with 5% dextran-charcoal treated fetal bovine serum. After 24 h the cells were collected, and cellular luciferase activities were measured by luminescence assay with the Steady-Glo Assay System Kit (Promega) according to the manufacturer’s instructions. Forskolin-sensitive cell lines derived from co-transfection of pCRE-luc and pcDNA3.1(+) were developed as control lines and named null-CRE-luc. Forskolin-sensitive cell lines derived from co-transfection of pCRE-luc and each pcDNA-OlMTNR1 were selected for by sensitivity for melatonin.
(§2) For MTNR1c, transient transfection was performed as outlined below. The MTNR1c experiment was performed using Hepa-E1 cells in 9 cm dishes, which were transiently transfected by pcDNA-OlMTNR1c (500 ng) and pCRE-luc (5000 ng) by TransIT-X2 Dynamic Delivery System (Mirus) and incubated 24 h before seeding, following the manufacturer’s instructions. Cells derived from a chosen clone or MRNR1c-tranfected cells were seeded at 10^4 cells per well in 96-well luminometer plates. Then, cells were treated with test chemicals in triplicate at four-fold serial dilutions in the presence or absence of melatonin with 6.25 × 10^−7 M forskolin. For testing the antagonistic effect, reagents were mixed with melatonin at 90% effective concentration (EC90). Negative control wells were dosed with media plus 0.1% ethanol. Positive control wells were dosed with 1 μM melatonin. After 24 h, luciferase activities were measured as described above. Concentration-response curves were fitted and the EC50 or IC50 were calculated using sigmoidal fit in GraphPad Prism5. The relative agonistic activity (RAA) of each reagent was expressed as a percentage of the maximal activity for the reporter induction to that of melatonin. The antagonistic index (AI) of each reagent was expressed as a percentage of the maximal inhibition of the reagent. Maximal inhibition was calculated as the quotient of the subtraction of the luminescence for melatonin from the maximal luminescence for the reagent divided by the maximal inhibition of melatonin. When the reagent inhibits the transactivity to the same level of that of the vehicle control (forskolin), the AI equals 100%.

[2] = target: T2, medaka MTNR1a (Oryzias latipes, UniProt H2LVT7); assay: as above; assay type: cell-based; settings: for RAA (%) MTNR1a (relative agonistic activity): maximal activity as percentage of that of melatonin; for agonistic activity in medaka MTNR1a: reporter assay without melatonin
T2 sequence (H2LVT7 1-347): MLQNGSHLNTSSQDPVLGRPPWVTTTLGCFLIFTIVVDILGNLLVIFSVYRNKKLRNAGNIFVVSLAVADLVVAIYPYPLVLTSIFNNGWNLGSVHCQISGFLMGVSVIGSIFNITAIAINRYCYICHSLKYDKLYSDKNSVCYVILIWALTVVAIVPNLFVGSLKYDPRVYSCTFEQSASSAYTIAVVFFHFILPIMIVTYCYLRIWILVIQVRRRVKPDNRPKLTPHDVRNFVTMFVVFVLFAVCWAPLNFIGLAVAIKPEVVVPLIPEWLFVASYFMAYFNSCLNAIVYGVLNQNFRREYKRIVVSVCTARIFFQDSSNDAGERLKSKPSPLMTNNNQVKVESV
Text: as §1, §2

[3] = target: T3, medaka MTNR1b (Oryzias latipes, UniProt A0ACM8R453); assay: as above; assay type: cell-based; settings: for RAA (%) MTNR1b (relative agonistic activity): maximal activity as percentage of that of melatonin, Hepa-E1 cells, forskolin, ND: not detected
T3 sequence (A0ACM8R453 1-364): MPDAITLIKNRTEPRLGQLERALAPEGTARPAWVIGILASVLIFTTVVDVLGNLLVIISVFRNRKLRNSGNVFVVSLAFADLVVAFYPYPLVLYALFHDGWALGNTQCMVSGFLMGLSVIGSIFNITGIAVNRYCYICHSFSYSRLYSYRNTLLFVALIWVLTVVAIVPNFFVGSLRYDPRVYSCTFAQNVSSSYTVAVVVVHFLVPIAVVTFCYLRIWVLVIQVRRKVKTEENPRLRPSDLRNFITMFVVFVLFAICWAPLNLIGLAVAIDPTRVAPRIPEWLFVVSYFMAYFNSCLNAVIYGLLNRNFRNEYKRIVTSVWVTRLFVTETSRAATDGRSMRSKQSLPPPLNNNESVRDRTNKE
Text: as §1, §2

[4] = target: T4, medaka MTNR1a-like (MTNR1d) (Oryzias latipes, UniProt A0A3B3HMP3); assay: as above; assay type: cell-based; settings: for Emax: read-out: RAA (%) MTNR1a-like (relative agonistic activity); for agonistic activity in medaka MTNR1d: reporter assay without melatonin
T4 sequence (A0A3B3HMP3 1-354): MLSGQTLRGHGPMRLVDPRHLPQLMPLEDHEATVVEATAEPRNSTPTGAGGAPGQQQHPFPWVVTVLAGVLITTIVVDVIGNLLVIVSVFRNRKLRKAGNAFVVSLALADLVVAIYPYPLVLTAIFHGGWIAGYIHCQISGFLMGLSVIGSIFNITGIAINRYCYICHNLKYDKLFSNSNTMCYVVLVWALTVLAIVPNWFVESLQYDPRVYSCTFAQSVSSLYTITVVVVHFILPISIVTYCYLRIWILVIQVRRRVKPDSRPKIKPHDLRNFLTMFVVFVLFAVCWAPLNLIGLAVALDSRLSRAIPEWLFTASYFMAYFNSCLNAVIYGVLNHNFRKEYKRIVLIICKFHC
Text: as §1, §2

[5] = target: T4, medaka MTNR1a-like (MTNR1d); settings: maximal inhibition of melatonin (EC90) effect; 100% = forskolin level; ND: not detected
Experimental: (§4) Hepa-E1 cells were seeded in 9 cm dishes prior to transfection. Both plasmids, pCRE-luc as well as expression vectors for medaka mtnrs were linearized by PCR and transfected with X-tremeGENE 9 (Roche) according to the manufacturer’s instructions. Stably transfected cells were selected with G418. After selection, each colony was collected by pipetting. Sensitivity for cAMP in each clone was tested by forskolin treatment after seeding into 96-well plates with E-RDF medium (Kyokuto, Tokyo, Japan) and supplemented with 5% dextran-charcoal treated fetal bovine serum. After 24 h the cells were collected, and cellular luciferase activities were measured by luminescence assay with the Steady-Glo Assay System Kit (Promega) according to the manufacturer’s instructions. […]
(§5) Cells derived from a chosen clone or MRNR1c-tranfected cells were seeded at 10^4 cells per well in 96-well luminometer plates. […] After 24 h, luciferase activities were measured as described above. Concentration-response curves were fitted and the EC50 or IC50 were calculated using sigmoidal fit in GraphPad Prism5. […] The antagonistic index (AI) of each reagent was expressed as a percentage of the maximal inhibition of the reagent. Maximal inhibition was calculated as the quotient of the subtraction of the luminescence for melatonin from the maximal luminescence for the reagent divided by the maximal inhibition of melatonin. […]

[6] = target: T1, medaka MTNR1c; assay: cAMP-responsive (CRE-luc) reporter gene assay, antagonist mode with EC90 melatonin; assay type: cell-based; settings: maximal inhibition of melatonin (EC90) effect; 100% = forskolin level; ND: not detected
Text: as §1
(§3) For MTNR1c, transient transfection was performed as outlined below. […] After 24 h, luciferase activities were measured as described above. Concentration-response curves were fitted and the EC50 or IC50 were calculated using sigmoidal fit in GraphPad Prism5. The relative agonistic activity (RAA) of each reagent was expressed as a percentage of the maximal activity for the reporter induction to that of melatonin. The antagonistic index (AI) of each reagent was expressed as a percentage of the maximal inhibition of the reagent. Maximal inhibition was calculated as the quotient of the subtraction of the luminescence for melatonin from the maximal luminescence for the reagent divided by the maximal inhibition of melatonin. […]

[7] = target: T3, medaka MTNR1b; assay: as above; assay type: cell-based; settings: for AI (%) MTNR1b (antagonistic index): maximal inhibition of melatonin (EC90) effect, 100% = forskolin level, ND: not detected
Text: as §1, §3

[8] = target: T2, medaka MTNR1a; settings: maximal inhibition of melatonin (EC90) effect; 100% = forskolin level; ND: not detected
Experimental: as §4, §5

[9] = 24 h, listed as 2-Iodomelatonin
[10] = stably transfected Hepa-E1 cells, 6.25 × 10^−7 M forskolin, 24 h, NC: not calculable (low activity, curve did not reach maximum), read-out: Potency (M) MTNR1a
[11] = maximal activity as percentage of that of melatonin, Hepa-E1 cells, forskolin, 24 h, ND: not detected
[12] = stably transfected Hepa-E1 cells, 6.25 × 10^−7 M forskolin, 24 h, NC: not calculable (low activity, curve did not reach maximum), read-out: Potency (M) MTNR1a-like

SMILES: COc1ccc2[nH]c(I)c(CCNC(C)=O)c2c1 [2-Iodo melatonin, 2-Iodomelatonin]
RAA (%) MTNR1c (relative agonistic activity) ([1]; 24 h): 111.8 ± 3.2% | RAA (%) MTNR1c (relative agonistic activity) [1, 9]: 112% | EC50 ([1]; transiently transfected Hepa-E1 cells, 6.25 × 10^−7 M forskolin, 24 h, NC: not calculable (low activity, curve did not reach maximum), read-out: Potency (M) MTNR1c): 1.3e-11 M | RAA (%) MTNR1a (relative agonistic activity) ([2]; Hepa-E1 cells, forskolin, 24 h, ND: not detected): 95.8 ± 6.9% | RAA (%) MTNR1a (relative agonistic activity) ([2]; Hepa-E1 cells, forskolin, 24 h, ND: not detected, listed as 2-Iodomelatonin): less than 100% | EC50 [2, 10]: 2.7e-11 M | RAA (%) MTNR1b (relative agonistic activity) ([3]; 24 h): 101.4 ± 2.8% | RAA (%) MTNR1b (relative agonistic activity) [3, 9]: equivalent to that of melatonin | EC50 ([3]; stably transfected Hepa-E1 cells, 6.25 × 10^−7 M forskolin, 24 h, NC: not calculable (low activity, curve did not reach maximum), read-out: Potency (M) MTNR1b): 3.9e-11 M | RAA (%) MTNR1a-like (relative agonistic activity) [4, 11]: 69.3 ± 6.8% | RAA (%) MTNR1a-like (relative agonistic activity) ([4]; maximal activity as percentage of that of melatonin, Hepa-E1 cells, forskolin, 24 h, ND: not detected, listed as 2-Iodomelatonin): 69.3% | EC50 [4, 12]: 4e-10 M

AI (%) MTNR1a-like (antagonistic index) [5]: did not exhibit inhibition | Emax ([1]; 24 h, 24 h): 118% | EC50 ([1]; MTNR1c-transfected Hepa-E1 cells, cAMP-responsive reporter, read-out: EC50 MTNR1c): > 1e-06 M | RAA (%) MTNR1c (relative agonistic activity) ([1]; 24 h, 1440 min): 117.6 ± 11.5% | RAA (%) MTNR1a (relative agonistic activity) ([2]; Hepa-E1 cells, forskolin, 24 h, ND: not detected, 1440 min): 68.2 ± 3.8% | RAA (%) MTNR1a (relative agonistic activity) ([2]; Hepa-E1 cells, forskolin, 24 h, ND: not detected, listed as luzindole, 1440 min): less than 100% | agonistic activity in medaka MTNR1a [2]: exhibited agonistic activity | EC50 [2, 10]: 3.3e-07 M | EC50 ([4]; MTNR1d (MTNR1a-like) transfected Hepa-E1 cells, cAMP-responsive reporter, read-out: EC50 MTNR1d): > 1e-06 M | Emax [4, 11]: 83.1% | agonistic activity in medaka MTNR1d [4]: exhibited agonistic activity | AI (%) MTNR1c (antagonistic index) [6]: did not exhibit inhibition | AI (%) MTNR1b (antagonistic index) [7]: did not exhibit inhibition | AI (%) MTNR1a (antagonistic index) [8]: did not exhibit inhibition
SMILES: CC(=O)NCCc1c(Cc2ccccc2)[nH]c2ccccc12 [Luzindole]

SMILES: COc1ccc2[nH]cc(CCNC(C)=O)c2c1 [Melatonin, N-acetyl-5-methoxytryptamine]
EC50 [1]: 6.2e-11 M | Emax ([1]; 24 h, 24 h): 100 ± 1.8% | potency for melatonin of MTNR1c compared with MTNR1d/MTNR1a-like ([1]; ratio of potencies between subtypes): more than three hundred-fold | EC50 [2]: 4.8e-10 M | Emax ([2]; 24 h, read-out: RAA (%) MTNR1a (relative agonistic activity), maximal activity as percentage of that of melatonin, Hepa-E1 cells, forskolin, 24 h, ND: not detected): 100 ± 3.8% | EC50 [3]: 1.9e-09 M | Emax ([3]; 24 h, read-out: RAA (%) MTNR1b (relative agonistic activity)): 100 ± 4.4% | EC50 [4]: 2.2e-08 M | Emax ([4]; 24 h): 100 ± 2.9%

agonistic effect on MTNR1c ([1]; reporter assay without melatonin): no agonistic effects | agonistic activity in medaka MTNR1a [2]: exhibited agonistic activity | EC50 [2, 10]: 4.7e-09 M | RAA (%) MTNR1a-like (relative agonistic activity) [4, 11]: 68.7% and 68.7 ± 6.4% | agonistic activity in medaka MTNR1d [4]: exhibited agonistic activity | EC50 [4, 12]: 1.2e-07 M | AI (%) MTNR1b (antagonistic index) [7]: 68.3% and 68.3 ± 8.0% | IC50 ([7]; with EC90 melatonin and forskolin, Hepa-E1 cells, 24 h, NC: not calculable, read-out: Potency (M) MTNR1b, antagonist): 1.9e-07 M
SMILES: CCC(=O)NC1Cc2ccccc2C(c2ccccc2)C1 (stereo not shown) [4P-PDOT]
